Measurements reported in ChEMBL document CHEMBL3758161, “Synthesis and evaluation of antibacterial and antitumor activities of new galactopyranosylated amino alcohols” (Eur J Med Chem, 2016).
pIC50: −log10 of the molar value. ≈ marks a conversion by molar mass, not a printed value.

Columns and labels:
[1] = Lipophilicity, log P of the compound; type: physicochemical; conditions: octanol/water
[2] = system: Mycobacterium tuberculosis; test: microbe, parasite or virus in culture; conditions: H37Rv
Description: Antibacterial activity against Mycobacterium tuberculosis H37Rv

[3] = Cytotoxicity against human GM07492A cells assessed as cell growth inhibition after 24 hrs by XTT assay; type: cell-based
MCF7 [4] = test: Selectivity index, ratio of IC50 for human GM07492A cells to IC50 for human MCF7 cells; type: functional
HeLa = test: Cytotoxicity against human HeLa cells assessed as cell growth inhibition after 24 hrs by XTT assay; type: functional, cell-based
M059J = test: Cytotoxicity against human M059J cells assessed as cell growth inhibition after 24 hrs by XTT assay; type: functional, cell-based
MCF7 [5] = test: cells; conditions: Homo sapiens, MCF7, 24 h
Description: Cytotoxicity against human MCF7 cells assessed as cell growth inhibition after 24 hrs by XTT assay

Pseudomonas aeruginosa [6] = test: Antibacterial activity against gram-negative Pseudomonas aeruginosa ATCC 2785 at 5 mg/ml incubated overnight by agar well diffusion method; type: functional; conditions: read-out: DIZ
[7] = system: Staphylococcus epidermidis; test: Antibacterial activity against gram-positive Staphylococcus epidermidis ATCC 12228 at 5 mg/ml incubated overnight by agar well diffusion method; type: functional; conditions: read-out: DIZ
Escherichia coli [8] = test: Bactericidal activity against gram-negative Escherichia coli ATCC 11229 after 24 hrs by broth dilution method; type: functional; conditions: ATCC 11229, 24 h
Pseudomonas aeruginosa [9] = test: Bactericidal activity against gram-negative Pseudomonas aeruginosa ATCC 2785 after 24 hrs by broth dilution method; type: functional; conditions: ATCC 2785, 24 h
Staphylococcus aureus [10] = test: Bactericidal activity against gram-positive Staphylococcus aureus ATCC 3591 after 24 hrs by broth dilution method; type: functional; conditions: ATCC 3591, 24 h
[11] = system: Staphylococcus epidermidis; test: Bactericidal activity against gram-positive Staphylococcus epidermidis ATCC 12228 after 24 hrs by broth dilution method; type: functional; conditions: ATCC 12228, 24 h
Staphylococcus aureus [12] = test: Antibacterial activity against gram-positive Staphylococcus aureus ATCC 3591 at 5 mg/ml incubated overnight by agar well diffusion method; type: functional; conditions: read-out: DIZ
Escherichia coli [13] = test: Antibacterial activity against gram-negative Escherichia coli ATCC 11229 at 5 mg/ml incubated overnight by agar well diffusion method; type: functional; conditions: read-out: DIZ

Compound | logP [1] | MIC [2] [µM] | pIC50 [3] | Ratio IC50 (MCF7 [4]) | pIC50 (HeLa) | pIC50 (M059J) | pIC50 (MCF7 [5]) | zone of inhibition at 5000 µg/mL (Pseudomonas aeruginosa [6]) [mm] | zone of inhibition at 5000 µg/mL [7] [mm] | MBC (Escherichia coli [8]) [µM] | MBC (Pseudomonas aeruginosa [9]) [µM] | MBC (Staphylococcus aureus [10]) [µM] | MBC [11] [µM] | zone of inhibition at 5000 µg/mL (Staphylococcus aureus [12]) [mm] | zone of inhibition at 5000 µg/mL (Escherichia coli [13]) [mm]
CCCCCCCCCCCCNCCN | 4.69 | 27 (≈ 6.17 µg/mL) |  |  |  |  |  |  |  |  |  |  |  |  | 
CCCCCCCCCCCCNCCO | 3.93 | 27 (≈ 6.19 µg/mL) |  |  |  |  |  |  |  |  |  |  |  |  | 
CCCCCCCCNCCO | 2.55 | 577 (≈ 100 µg/mL) |  |  |  |  |  |  |  |  |  |  |  |  | 
CCCCCCCCCCNCCO | 3.09 | 248 (≈ 49.9 µg/mL) |  |  |  |  |  |  |  |  |  |  |  |  | 
CCCCCCCCCCCCN(CCO)C[C@@H](O)COC[C@H]1O[C@@H]2OC(C)(C)O[C@@H]2[C@H]2OC(C)(C)O[C@H]21 | 4.22 | 29 (≈ 15.8 µg/mL) | 3.59 | 3.4 | 3.98 | 4.01 | 4.12 |  |  |  |  |  |  |  | 
CCCCCCCCC(O)CNCCO (stereo not drawn) | 2.14 | 460 (≈ 100 µg/mL) |  |  |  |  |  |  |  |  |  |  |  |  | 
CCCCCCCCCCCCC(O)CNCCO (stereo not drawn) | 4.69 | 46 (≈ 12.6 µg/mL) |  |  |  |  |  |  |  |  |  |  |  |  | 
CCCCCCCCCCNCCCN | 2.82 | 116 (≈ 24.9 µg/mL) |  |  |  |  |  |  |  |  |  |  |  |  | 
CCCCCCCCCCNCCN | 2.71 | 249 (≈ 49.9 µg/mL) |  |  |  |  |  |  |  |  |  |  |  |  | 
CCCCCCCCCCCCCCNCCN | 4.5 | 97 (≈ 24.9 µg/mL) |  |  |  |  |  |  |  |  |  |  |  |  | 
CCCCCCCCCCC(O)CNCCO (stereo not drawn) | 3.62 | 102 (≈ 25 µg/mL) |  |  |  |  |  |  |  |  |  |  |  |  | 
CCCCCCCCCCCCN(CCO)C[C@H](O)COC[C@H]1O[C@@H]2OC(C)(C)O[C@@H]2[C@H]2OC(C)(C)O[C@H]21 | 4.22 | 15 (≈ 8.19 µg/mL) | 3.79 | 0.8 | 3.79 |  | 3.74 |  |  |  |  |  |  |  | 
CCCCCCCCCCCCCCNCCCN | 4.88 | 46 (≈ 12.4 µg/mL) |  |  |  |  |  |  |  |  |  |  |  |  | 
CCCCCCCCCCCCNCCCN | 5.06 | 103 (≈ 25 µg/mL) |  |  |  |  |  |  |  |  |  |  |  |  | 
CCCCCCCCCCC(O)CN(CCO)CC(O)COC[C@H]1O[C@@H]2OC(C)(C)O[C@@H]2[C@H]2OC(C)(C)O[C@H]21 (mixture of isomers) | 3.37 | 175 |  |  |  |  |  | 20 | 11 | > 911 | > 911 | > 911 | 28 |  | 
CCCCCCCCCCCCCCN(CCO)CC(O)COC[C@H]1O[C@@H]2OC(C)(C)O[C@@H]2[C@H]2OC(C)(C)O[C@H]21 (mixture of isomers) | 5.06 | 22 | 4.08 | 2.7 | 4.06 | 4.89 | 4.51 |  | 30 | > 892 | 892 | 111 | 3 | 18 | 
CCCCCCCCN(CCO)CC(O)COC[C@H]1O[C@@H]2OC(C)(C)O[C@@H]2[C@H]2OC(C)(C)O[C@H]21 (mixture of isomers) | 2.55 | > 204 |  |  |  |  |  |  |  |  |  |  |  |  | 

Compound | logP [1] | MIC [2] [µM] | pIC50 [3] | Ratio IC50 (MCF7 [4]) | pIC50 (HeLa) | pIC50 (M059J) | pIC50 (MCF7 [5]) | zone of inhibition at 5000 µg/mL (Pseudomonas aeruginosa [6]) [mm] | zone of inhibition at 5000 µg/mL [7] [mm] | MBC (Escherichia coli [8]) [µM] | MBC (Pseudomonas aeruginosa [9]) [µM] | MBC (Staphylococcus aureus [10]) [µM] | MBC [11] [µM] | zone of inhibition at 5000 µg/mL (Staphylococcus aureus [12]) [mm] | zone of inhibition at 5000 µg/mL (Escherichia coli [13]) [mm]
CCCCCCCCCCCCCCNCCNCC(O)COC[C@H]1O[C@@H]2OC(C)(C)O[C@@H]2[C@H]2OC(C)(C)O[C@H]21 (mixture of isomers) | 3.56 | 87 | 4.60 | 0.6 | 4.38 | 4.41 | 4.41 | 20 | 20 | 445 | > 894 | 14 | 14 | 22 | 10
CCCCCCCCC(O)CN(CCO)CC(O)COC[C@H]1O[C@@H]2OC(C)(C)O[C@@H]2[C@H]2OC(C)(C)O[C@H]21 (mixture of isomers) | 2.43 | > 187 |  |  |  |  |  | 18 | 22 | > 959 | > 959 | 240 | 120 | 16 | 
CCCCCCCCCCNCCNCC(O)COC[C@H]1O[C@@H]2OC(C)(C)O[C@@H]2[C@H]2OC(C)(C)O[C@H]21 (mixture of isomers) | 3.15 | 24 | 4.20 | 2.3 | 4.40 | 4.41 | 4.55 |  | 20 | > 990 | > 990 | 8 | 8 | 20 | 16
CCCCCCCCCCCCN(CCO)CC(O)COC[C@H]1O[C@@H]2OC(C)(C)O[C@@H]2[C@H]2OC(C)(C)O[C@H]21 (mixture of isomers) | 4.22 | 23 | 3.55 | 2.7 | 3.90 | 3.96 | 3.98 | 20 | 20 | > 938 | > 938 | > 938 | 4 |  | 
CCCCCCCCCCCCC(O)CN(CCO)CC(O)COC[C@H]1O[C@@H]2OC(C)(C)O[C@@H]2[C@H]2OC(C)(C)O[C@H]21 (mixture of isomers) |  |  |  |  |  |  |  |  | 18 | > 868 | > 868 | > 868 | 13 | 20 | 
CCCCCCCCCCCCNCCNCC(O)COC[C@H]1O[C@@H]2OC(C)(C)O[C@@H]2[C@H]2OC(C)(C)O[C@H]21 (mixture of isomers) | 3.99 | 91 | 5.14 | 0.6 |  | 5.00 | 4.92 | 20 | 20 | 235 | > 940 | 15 | 15 | 30 | 10
CCCCCCCCCCN(CCO)CC(O)COC[C@H]1O[C@@H]2OC(C)(C)O[C@@H]2[C@H]2OC(C)(C)O[C@H]21 (mixture of isomers) | 3.39 | 96 |  |  |  |  |  |  | 20 | > 988 | 988 | 123 | 61 | 20 | 
CCCCCCCCCCCCNCCCNCC(O)COC[C@H]1O[C@@H]2OC(C)(C)O[C@@H]2[C@H]2OC(C)(C)O[C@H]21 (mixture of isomers) | 4.09 | 22 | 4.63 | 0.8 | 4.46 | 4.46 | 4.56 |  | 19 | > 916 | > 916 | > 916 | > 916 | 20 | 
CCCCCCCCCCNCCCNCC(O)COC[C@H]1O[C@@H]2OC(C)(C)O[C@@H]2[C@H]2OC(C)(C)O[C@H]21 (mixture of isomers) | 3.26 | 23 | 4.53 | 0.9 | 4.24 | 4.27 | 4.49 |  |  | 241 | > 965 | 60 | 15 | 12 | 28
CCCCCCCCCCCCCCNCCCNCC(O)COC[C@H]1O[C@@H]2OC(C)(C)O[C@@H]2[C@H]2OC(C)(C)O[C@H]21 (mixture of isomers) | 4.12 | 42 | 4.10 | 0.4 | 3.83 | 3.71 | 3.71 |  |  |  |  |  |  |  | 
CC[C@@]1(O)C(=O)OCc2c1cc1n(c2=O)Cc2cc3ccccc3nc2-1 [CAMPTOTHECIN] |  |  | 5.49 | 0.5 | 4.70 | 5.26 | 5.22 |  |  |  |  |  |  |  | 
COc1cccc2c1C(=O)c1c(O)c3c(c(O)c1C2=O)C[C@@](O)(C(=O)CO)C[C@@H]3O[C@H]1C[C@H](N)[C@H](O)[C@H](C)O1 [DOXORUBICIN] |  |  | 6.30 |  | 4.66 | 5.16 |  |  |  |  |  |  |  |  | 
CC[C@@H](CO)NCCN[C@@H](CC)CO [ETHAMBUTOL] |  | 15 (≈ 3.06 µg/mL) |  |  |  |  |  |  |  |  |  |  |  |  | 
COc1cc([C@@H]2c3cc4c(cc3[C@@H](O[C@@H]3O[C@@H]5CO[C@@H](C)O[C@H]5[C@H](O)[C@H]3O)[C@H]3COC(=O)[C@H]23)OCO4)cc(OC)c1O [ETOPOSIDE] |  |  | 5.92 | 0 | 3.65 | 4.23 | 4.08 |  |  |  |  |  |  |  | 
CCCCCCCCCCCCCCNCCO [MYRALACT] | 4.76 | 49 (≈ 12.6 µg/mL) |  |  |  |  |  |  |  |  |  |  |  |  | 
NC(=O)N/N=C/c1ccc([N+](=O)[O-])o1 [NITROFURAZONE] |  |  |  |  |  |  |  | 15 | 25 |  |  |  |  | 31 | 35
CO[C@H]1/C=C/O[C@@]2(C)Oc3c(C)c(O)c4c(O)c(c(/C=N/N5CCN(C)CC5)c(O)c4c3C2=O)NC(=O)/C(C)=C\C=C\[C@H](C)[C@H](O)[C@@H](C)[C@@H](O)[C@@H](C)[C@H](OC(C)=O)[C@@H]1C [RIFAMPIN] |  | 1 (≈ 0.823 µg/mL) |  |  |  |  |  |  |  |  |  |  |  |  | 
